Test results: patent US8859496B2, “Pharmaceutical composition using connective-tissue growth factor” (Postech Academy-Industry Foundation, priority 2010, dated 2014)
No end group written: not given here.

How the values were obtained:
FPRL1 = molecular target: T1, FPRL1 (Homo sapiens, UniProt P25090); experiment: Flow cytometry binding of biotinylated linker polypeptide to FPRL1/RBL, vector/RBL or FPR/RBL cells
T1 construct: expressed in transfected cells; host or cells: rat basophil leukemia RBL-2H3 cells, kept under G418
T1 sequence (P25090 1-351): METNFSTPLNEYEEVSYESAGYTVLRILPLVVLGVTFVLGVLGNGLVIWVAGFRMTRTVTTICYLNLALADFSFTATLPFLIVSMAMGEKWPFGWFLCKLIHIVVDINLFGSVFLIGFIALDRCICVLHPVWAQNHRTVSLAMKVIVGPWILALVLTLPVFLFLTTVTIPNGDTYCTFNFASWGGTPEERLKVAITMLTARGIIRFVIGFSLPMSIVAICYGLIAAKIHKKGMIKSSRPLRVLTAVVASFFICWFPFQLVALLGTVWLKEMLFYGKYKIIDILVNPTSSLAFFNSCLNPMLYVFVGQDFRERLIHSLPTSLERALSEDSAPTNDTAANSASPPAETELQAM
Description: To evaluate the degree of binding of linker polypeptide corresponding to the link region of human CTGF, linker polypeptide was labeled using a EZ-Link Micro Sulfo-NHS-LC-Biotinylation kit (Pierce Chemical Co., Rockford, Ill., USA) according to the manufacturer's instruction. The linker polypeptide was cultured at room temperature for 1 hour in PBS with 9 mM sulfo-NHS-LC-biotin (Pierce Chemical Co., Rockford, Ill., USA). During biotinylation, vector/RBL cells, FPR/RBL cells, FPRL1/RBL cells, or HUVECs were treated with trypsin, and collected, and then, treated with rabbit serum at room temperature for 30 minutes. After culturing the biotinylated linker polypeptide in the ice for 30 minutes, the cells were shortly washed with ice-cold PBS, cultured with antihuman fluoroscein-5-isothiocyanate (FITC)-conjugated streptavidin (Pierce Chemical Co.), and then, washed with ice-cold PBS, and fixed with 1% formaldehyde solution. And then, they were analyzed using FACS Caliber system (BD Biosciences, San Jose, Calif.) with CellQuest and WinMDI 2.9 software according to previously known method (He, R., Sang, H. & Ye, R. D. Serum amyloid A induces IL-8 secretion through a G protein-coupled receptor, FPRL1/LXA4R. Blood 101, 1572-1581, 2003). […]

HUVECs [1] = experiment: HUVEC wound migration assay; type: cell-based, human
Description: Specifically, HUVECs inoculated on a 60-mm culture dish to confluence were wounded with the end of a pipette, and treated with linker polypeptide (10^−1˜10^2 nM) or recombinant CTGF (recombinant human CTGF, rhCTGF; BioVendor R&D, NC, USA) (10^1 or 10^2 nM) in Medium 199 to which 1% serum and 1 mM thymidine were added. After culturing 16 hours, the number of cells that migrated over a reference line was counted to quantify the degree of migration, and the cells were photographed with 50× magnification.
(§1) First, 20 ng/ml of VEGF-A was administered to HUVECs, the degree of cell proliferation, cell migration, or tube formation was confirmed by the <Experiment method 9>, and the results are shown in FIGS. 22 to 24. At this time, FPRL1 antagonist WRW4 was additionally added.

HUVECs [2] = experiment: HUVEC proliferation assay ([3H]-thymidine); type: cell-based, human
Description: For proliferation assay, HUVECs were plate cultured in a gelatin-coated 24-well culture dish at 2×10^4 cells/well and allowed to adhere overnight. 4 hours after serum was depleted, the cells were treated with various mitogen (CTGF linker polypeptide, CTGF) for 48 hours. [^3H]-thymidine (1 μCi, Amersham International) was added to each well 6 hours before final culture. The inserted [^3H]-thymidine was extracted in 0.2 M NaOH and 0.1% SDS solution at 37° C. for 1 hour. Radioactivity was measured using liquid scintillation counter (Beckmann Instruments), which was repeated three times, and the result was indicated by mean±standard deviation per minute.
as §1

HUVECs [3] = experiment: Intracellular Ca2+ concentration in HUVECs; type: cell-based, human
Description: FPRL1/RBL, vector/RBL or FPR/RBL cells were cultured in a fluo-3-AM working solution containing 0.03% (w/v) plutonic F-127 (Molecular Probes) at 37° C. for 1 hour so that the final concentration of fluo-3-AM became 20 uM/L. After the culturing, fluo-3-AM fluorescence occurred at 488 nm with high-power Ar^+ laser in the cells, and the emission band was measured at 530 nm with photomultiplier. Fluorescence signal was detected using confocal laser scanning system (LSM 510 Meta; Carl Zeiss, Jena, Germany) equipped with Nikon E-600 Eclipse microscope. Fluorescence intensities before adding CTGF (F0) and after adding CTGF (F) were measured. Change in the intracelullar Ca^2+ concentration [Ca^2+]i was indicated by F/F0 ratio. From each cell, 50 to 120 images were scanned.
And, HUVECs were treated with the CTGF linker polypeptide or rhCTGF at various concentrations for 1 hour, it was confirmed whether intracellular Ca^2+ concentration increases by the above method, and the results are shown in FIG. 15.

binding of biotinylated linker polypeptide to cells (FPRL1; 10 nM, FPRL1/RBL, vector/RBL or FPR/RBL cells)	Substance	migration of HUVECs (HUVECs [1]; linker polypeptide 10^-1 to 10^2 nM, 16 hours, compared to recombinant CTGF)	proliferation of HUVECs (HUVECs [2]; 48 hours, [3H]-thymidine)	intracellular Ca2+ concentration in HUVECs (HUVECs [3]; various concentrations, 1 hour)	effect of antagonist on linker polypeptide binding (FPRL1; WRW4 10 uM, 30 minutes)	effect of antagonist on HUVEC migration induced by VEGF-A (HUVECs [1]; VEGF-A 20 ng/ml, WRW4 10 uM)	effect of antagonist on HUVEC migration induced by CTGF linker polypeptide (HUVECs [1]; WRW4 10 uM)	effect of antagonist on HUVEC proliferation by VEGF-A (HUVECs [2]; VEGF-A 20 ng/ml plus WRW4)	effect of antagonist on Ca2+ increase by CTGF linker polypeptide in HUVECs (HUVECs [3]; WRW4 10 uM)
binds only to FPRL1/RBL cells	EWVCDEPKDQTVVGPALAAYRLEDTFGPDPTMIRANCLV (EWVCDEPKDQTVVGPALAAYRLEDTFGPDPTMIRANCLV-NH2; cysteine pairing not given here) [CTGF linker polypeptide]	induces migration of HUVECs in a concentration-dependent manner more effectively than recombinant CTGF	induces proliferation of HUVECs in a concentration-dependent manner, the degree is not statistically significant	increases intracellular Ca^2+ concentration in a concentration-dependent manner	–	–	–	–	–
–	WRWWWW (FPRL1 antagonist) [WRW4]	–	–	–	the linker polypeptide binding is inhibited in FPR/RBL cells	the cell migration is not induced	the cell migration is not induced	did not exhibit statistically significant inhibition of HUVECs proliferation by VEGF-A	that's not the case when the cells are treated with FPRL1 antagonist WRW4
